These results are taken from patent US5885987A, “Phenylene derivatives” (Kowa Co., Ltd., priority 1996, dated 1999).

One experiment deals with T1, LTD4 receptor (Cavia porcellus, UniProt Q2NNR5).
T1 construct: guinea pig pulmomembranous protein; from tissue; host or cells: guinea pig lung membranes
T1 sequence (Q2NNR5 1-340): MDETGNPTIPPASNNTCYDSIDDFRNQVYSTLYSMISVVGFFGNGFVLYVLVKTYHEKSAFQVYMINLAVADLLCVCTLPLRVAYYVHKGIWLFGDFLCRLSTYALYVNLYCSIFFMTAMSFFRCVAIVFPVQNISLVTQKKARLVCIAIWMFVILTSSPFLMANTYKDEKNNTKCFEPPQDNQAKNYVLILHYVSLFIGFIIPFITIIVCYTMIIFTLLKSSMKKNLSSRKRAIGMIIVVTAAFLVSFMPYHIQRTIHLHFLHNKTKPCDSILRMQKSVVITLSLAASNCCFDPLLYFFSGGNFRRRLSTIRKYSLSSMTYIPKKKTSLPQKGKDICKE
As to the kind of experiment: LTD4 receptor binding inhibition test ([^3 H]leukotriene D4, guinea pig pulmomembranous protein). The settings on record: for Kd: read-out: LTD4 receptor, dissociation constant KD. The protocol:
2) LTD4 Receptor Binding Inhibition Test
An ice-cooled tris hydrochloride/sodium chloride buffer (10 mM/100 mM, pH 7.5) was added to terminate the reaction, followed by immediate filtration through a Wattman CF/C filter. The filter was washed twice with 20 ml aliguots of the ice-cooled buffer. The radioactivity of the residue was measured by a liquid scintillation counter. […] In a binding assay, 2 μM leukotriene D4 was used for the measurement of a nonspecific binding.

A further experiment has as its target T2, H1 receptor (Cavia porcellus, UniProt P31389).
T2 construct: guinea pig cerebromembranous protein; from tissue; host or cells: guinea pig cerebral (brain) membranes
Put plainly: H1 receptor binding inhibition test ([^3 H]mepyramin, guinea pig cerebromembranous protein). The settings on record: for inhibition at 100 µM: a: 100 μM, read-out: H1 receptor (%), inhibition rate; for Kd: read-out: H1 receptor, dissociation constant KD. The procedure: 1) H1 Receptor Binding Inhibition Test
An ice-cooled phosphate buffer was added to terminate the reaction, followed by immediate filtration through a Wattman CF/C filter. The filter was washed twice with 20 ml aliquots of the ice-cooled buffer. The radioactivity of the residue was measured by a liquid scintillation counter. From a measurement value obtained without the addition of the test compound and measurements values obtained upon addition of the test compound at various concentrations, the dose-response of the inhibitory action of the test compound was measured and the 50% inhibitory concentration (IC50) was determined. Using the Cheng-Prusoff formula, a dissociation constant was calculated from the IC50. In a binding assay, 10^-4 M R(-)dimethindene was used for the measurement of a nonspecific binding.

T2 sequence (P31389 whole entry): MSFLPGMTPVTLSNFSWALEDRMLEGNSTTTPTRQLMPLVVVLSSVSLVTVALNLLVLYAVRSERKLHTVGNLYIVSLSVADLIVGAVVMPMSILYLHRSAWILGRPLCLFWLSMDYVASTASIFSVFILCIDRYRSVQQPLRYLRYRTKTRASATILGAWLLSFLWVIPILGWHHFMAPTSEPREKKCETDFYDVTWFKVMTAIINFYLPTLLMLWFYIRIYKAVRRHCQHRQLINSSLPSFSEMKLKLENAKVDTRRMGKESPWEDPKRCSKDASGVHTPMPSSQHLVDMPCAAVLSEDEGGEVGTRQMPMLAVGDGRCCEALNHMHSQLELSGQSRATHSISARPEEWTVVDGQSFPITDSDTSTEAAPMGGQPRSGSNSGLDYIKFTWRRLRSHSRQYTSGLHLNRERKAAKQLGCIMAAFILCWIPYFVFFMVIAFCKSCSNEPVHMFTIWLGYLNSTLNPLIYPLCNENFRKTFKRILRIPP

Usually Kd stands for the constant that tells how readily two partners part at equilibrium. The inhibition is the percentage by which the read-out fell short of the control. For the molecule `O=C1CCSc2cc(OCc3cccc(OCc4ccc5ccccc5n4)c3)ccc2N1` [Example 11, 8-[3-(2-Quinolinylmethoxy)benzyloxy]-2,3,4,5-tetrahydro-1,5-benzothiazepin-4-one], the dissociation constant Kd on LTD4 receptor was found to be 22 nM. In addition, on H1 receptor, the inhibition at 100 µM stood at 47%.

For the molecule `O=C1Cc2c(cccc2OCc2cccc(OCc3ccc4ccccc4n3)c2)N1` [Example 12, 4-[3-(2-Quinolinylmethoxy)benzyloxy)-2,3-dihydro-1H-indol-2-one], the dissociation constant Kd on LTD4 receptor was 703 nM. At H1 receptor (concentration not given), the “H1 receptor (%), inhibition rate” value is listed as 45%.

Regarding `CC1(C)C(=O)Nc2ccc(OCc3cccc(OCc4ccc5ccccc5n4)c3)cc21` [Example 14, 3,3'-Dimethyl-5-[3-(2-quinolinylmethoxy)benzyloxy]-2,3-dihydro-1H-indol-2-one], on LTD4 receptor, the Kd worked out at 215 nM. Also, the inhibition at 100 µM at H1 receptor amounted to 29%.

For the molecule `CCCCCCc1cc(OCc2cccc(OCc3ccc4ccccc4n3)c2)cc2c1C(C)(C)C(=O)N2` [Example 16, 3,3-Dimethyl-4-(n-hexyl)-6-[3-(2-quinolinylmethoxy)benzyloxy]-2,3-dihydro-1H-indol-2-one], on LTD4 receptor, the Kd amounted to 2500 nM. Moreover, on H1 receptor, the inhibition at 100 µM came to 48%.

In the case of `CC1(C)C(=O)Nc2ccc(OCc3ccc(OCc4ccc5ccccc5n4)cc3)cc21` [Example 18, 3,3-dimethyl-5-[4-(2-quinolinylmethoxy)benzyloxy]-2,3-dihydro-1H-indol-2-one], the equilibrium dissociation constant (Kd) on LTD4 receptor turned out to be 1100 nM; on H1 receptor, 78700 nM.

As to `Cc1ccc(OCc2ccc(OCc3ccc4ccccc4n3)cc2)c2c1NC(=O)CC2` [Example 21, 8-Methyl-5-[4-(2-quinolinylmethoxy)benzyloxy]-1,2,3,4-tetrahydroquinolin-2-one], on LTD4 receptor (b: 10 μM, read-out: LTD4 receptor (%), inhibition rate), the inhibition at 10 µM worked out at 33%. In addition, the inhibition at 100 µM on H1 receptor was found to be 28%.

With `O=C1CCc2cc(OCc3ccc(OCc4ccc5ccccc5n4)cc3)ccc2N1` [Example 22], on LTD4 receptor, the dissociation constant Kd was 1240 nM. The inhibition at 100 µM at H1 receptor was determined as 45%.

With `O=C1CCc2ccc(OCc3ccc(OCc4ccc5ccccc5n4)cc3)cc2N1` [Example 23], the dissociation constant Kd on LTD4 receptor turned out to be 500 nM. Moreover, the inhibition at 100 µM at H1 receptor worked out at 41%.

For the molecule `O=C1CCc2cccc(OCc3ccc(OCc4ccc5ccccc5n4)cc3)c2N1` [Example 24, 8-[4-(2-Quinolinylmethoxy)benzyloxy]-1,2,3,4-tetrahydroquinolin-2-one], the figures for the Kd on LTD4 receptor and at H1 receptor were 301 nM and 25800 nM, respectively.

Consider `O=C1CCCc2cc(OCc3ccc(OCc4ccc5ccccc5n4)cc3)ccc2N1` [Example 25, 7-[4-(2-Quinolinylmethoxy)benzyloxy]-2,3,4,5-tetrahydro-1H-benzo[b]azepin-2-one], for which the results for the Kd on LTD4 receptor and on H1 receptor were 129 nM and 57800 nM, respectively.

In the case of `Cc1ccc(OCc2ccc(OCc3ccc4ccccc4n3)cc2)c2c1NC(=O)C2(C)C` [Example 27, 4-[4-(2-Quniolinylmethoxy)benzyloxy]-3,3,7-trimethyl-2,3-dihydydro-1H-indol-2-one], on LTD4 receptor, the Kd turned out to be 139 nM. Also, the inhibition at 100 µM at H1 receptor was determined as 38%.

Regarding `CC1(C)C(=O)Nc2cc(OCc3ccc(OCc4ccc5ccccc5n4)cc3)ccc21` [Example 28, 3,3-Dimethyl-6-[4-(2-quinolinylmethoxy)benzyloxy]-2,3-dihydro-1H-indol-2-one], the Kd at LTD4 receptor stood at 1400 nM. Also, on H1 receptor, the inhibition at 100 µM amounted to 30%.

For `CCCCCCc1cc(OCc2ccc(OCc3ccc4ccccc4n3)cc2)cc2c1C(C)(C)C(=O)N2` [Example 29, 3,3-Dimethyl-4-(n-hexyl)-6-(4-(2-quinolinylmethoxy)benzyloxy]-2,3-dihydro-1H-indol-2-one], the dissociation constant (Kd) at LTD4 receptor came out at 3100 nM. Moreover, the inhibition at 100 µM at H1 receptor was determined as 34%.

Regarding `O=C1CCc2ccc(OCc3cccc(OCc4ccc5ccc(Cl)cc5n4)c3)cc2N1` [Example 31, 7-[3-(7-chloro-2-quinolinylmethoxy)benzyloxy]-1,2,3,4-tetrahydroquinolin-2-one], the Kd at LTD4 receptor is 304 nM; at H1 receptor, 19800 nM.
